# Experiments:
# [1] = test system: HCT-116 (human carcinoma of the colon); experiment: Cytotoxity of acetylgliotoxin by the MTT method; type: cell-based; conditions: HCT-116, 72 hours
# Protocol: (§1) Antitumor activity of acetylgliotoxin against various cancer cells was measured by the MTT method. Various cancer cells were adjusted to 4.0 × 10^4 cells/mL by using a medium (hereinafter referred to as medium A) composed of RPMI 1640 medium (GIBCO) containing 10% fetal calf serum, and each 0.1 mL of the cancer cells was pipetted into each well of a 96 well microtiter plate. The plate was incubated in a carbon dioxide gas incubator at 37 °C for 20 hours, and each 0.025 mL of samples (test compounds) suitably diluted with the medium A was added. Then, incubation was further carried out in the carbon dioxide gas incubator at 37 °C for 72 hours. Each 0.01 mL of the MTT solution adjusted to 5 mg/mL by using Dulbecco's PBS (-) (Nissui) was added thereto, and incubated in the carbon dioxide gas incubator at 37 °C for 3 hours. Subsequently, each 0.05 mL of 0.01 N HCl/20 % SDS was added. Produced crystals were dissolved, and absorbance at 570 nm was measured by a microplate reader. By comparing the absorbance of the cells treated with the sample in the known concentration with that of non-treated cells, the sample concentration which inhibits multiplication of the cells at the rate of 50% (IC50) was calculated. Apoptosis was determined by incubating the plate in the carbon dioxide gas incubator at 37 °C for 20 hours, adding each 0.025 mL of samples (test compounds) suitably diluted with the medium A, incubating in the carbon dioxide gas incubator at 37 °C for 72 hours, according to the above method, adding nucleus-staining fluorescent dye DAPI (4,6 - diaminodino-2-henylindole) to each well so as to become 0.5 ng/mL, and after leaving at room temperature for 10 minutes, confirming agglomeration of chromosomes by using a fluorescence microscope.
# (§2) Human leukemia cells (K 562 : Dainippon Seiyaku), human carcinoma cells of the colon (HCT-15, HCT-116, SW946: Dainippon Seiyaku), human leukemia cells (U 937: Dainippon Seiyaku), human lung cancer cells (LX-1: Biseibutsu Kagaku Kenkyu-sho), mouse leukemia cells (P 388 : Dainippon Seiyaku), mouse carcinoma cells of the colon (colon-26 : Gan Kenkyu-kai, Gan Kenkyu-sho) Table 1
# [2] = test system: HCT-15 (human carcinoma of the colon); experiment: Cytotoxity of acetylgliotoxin by the MTT method; type: cell-based; conditions: HCT-15, 72 hours
# Protocol: as §1, §2
# [3] = test system: LX-1 (human lung cancer ); experiment: Cytotoxity of acetylgliotoxin by the MTT method; type: cell-based; conditions: LX-1, 72 hours
# Protocol: as §1, §2
# P388 (mouse leukemia ) = experiment: Cytotoxity of acetylgliotoxin by the MTT method; type: cell-based; conditions: P388, 72 hours
# Protocol: as §1, §2
# [4] = test system: SW948 (human carcinoma of the colon); experiment: Cytotoxity of acetylgliotoxin by the MTT method; type: cell-based; conditions: SW948, 72 hours
# Protocol: as §1, §2
# U937 (human leukemia ) = experiment: Cytotoxity of acetylgliotoxin by the MTT method; type: cell-based; conditions: U-937, U937, 72 hours
# Protocol: as §1, §2
# [5] = test system: colon-26 (mouse carcinoma of the colon ); experiment: Cytotoxity of acetylgliotoxin by the MTT method; type: cell-based; conditions: colon-26, 72 hours
# Protocol: as §1, §2
# various cancer cells = experiment: Judgement of apoptosis by DAPI nucleus staining; type: cell-based; conditions: agglomeration of chromosomes, fluorescence microscope
# Protocol: as §1, with “Each 0.01 mL of the MTT solution adjusted to 5 mg/mL by using Dulbecco's PBS (-) (Nissui) was added thereto, and incubated in the carbon dioxide gas incubator at 37 °C for 3 hours. Subsequently, each 0.05 mL of 0.01 N HCl/20 % SDS was added.” left out, “By comparing the absorbance of the cells treated with the sample in the known concentration with that of non-treated cells, the sample concentration which inhibits multiplication of the cells at the rate of 50% (IC50) was calculated.” left out
# [6] = test system: human carcinoma of the colon HCT-116; experiment: Evaluation in vivo using human carcinoma of the colon HCT-116 (Example 1); set-up: species or system Balb/c nu/nu mice; conditions: for I. R. (%): day 21, Balb/c nu/nu mice
# Protocol: Balb/c nu/nu mice (female: 5 weeks old) were bought, and HCT- 116 subcultured in vivo in the subcutaneous tissue was taken out. The HCT-116 was minced in a Petridish, and transplanted into the sulcutaneous tissue of […] mice in an amount of 30 mg/mouse by a trucker. The transplanted day was assigned day 0, and the size of the tumor and body weight were measured on day 7 and divided into groups by n=2.
# Acetylgliotoxin was dissolved in dimethyl sulfoxide (DMSO) in a concentration of 100 mg/mL, and adjusted to an object concentration (0.5 mg/kg, 1 mg/kg, 10 mg/kg, 20 mg/kg) by 5 % Tween 80 (saline solution). In the evaluation of 0.5, 1 mg/kg, injection was carried out every day for 5 days, in the case of 10 mg/kg, injected twice on day 7 and day8, and in the case of 20 mg/kg, injected once on day 7.
# The anticancer effect was evaluated by the inhibition rate of tumor cell multiplication (IR calculated from the weight of tumor. IR was obtained by the following formula.
# [7] = test system: mouse carcinoma of the colon cells colon 26; experiment: Anticancer effect in vivo against colon 26 (Example 9 A); conditions: CDFI mice
# Protocol: • (A) Evaluationin vivo using mouse carcinoma of the colon cells colon 26 CDFI mice (female : 4 weks age) were bought, and colon 26 subcultured in the subcutaneous tissue of the mouse was taken out, and cut into small pieces by a scissors. The cancer cells were transplanted into subcutaneous tisue of CDFI mice by a trucker. The day was assigned 0 day, and the tumor was measured by a slide caliper after 7 days. The volume of the tumor was calculated, and divided into groups (each group : n = 4). The text compound was dissolved in dimethylsulfoxide, and diluted with 5 % Tween 80- saline aqueous solution. […] The administration was carried out after 7 days, after 11 days and after 15 days or after 7 days and after 8 days from the transplantation at a rate of once per one day. 21st day from the transplantation, the volume of tumor was measured and the volume of tumor and the inhibition against tumor multiplication rate (I.R.) were calculated. The volume of tumor was calculated by the following formula. (Tumore Volume [mm)^3 (]= Minor Axis [mm])^2 × Major Axis [mm] × (1/2) [formula] • The inhibition against tumor multiplication rate (I.R.) was calculated by the following formula. I.R. [%] = {1- (Average Tumor Volume of Administration Group / Average Tumor Volume of Control Group)) × 100 [formula] • (B) Evaluation in vivo using human carcinoma of the colon cells HCT-116 Balb/c nu/nu mice (female : 5 weks age) were bought, and HCT-116 (Dainippon Seiyaku) subcultured in the subcutaneous tissue of the mouse was taken out, and cut into small pieces by a scissors. The cancer cells were transplanted into subcutaneous tissue of […] mice by a trucker. The day was assigned 0 day, and the tumor was measured by a slide caliper after 7 days. The volume of the tumor was calculated, and divided into groups (each group : n = 2). The text compound was dissolved in dimethylsulfoxide, and diluted with 5 % Tween 80- saline aqueous solution. […] The administration was carried out after 7 days, after 11 days and after 15 days from the transplantation at a rate of once per one day. 21st day from the transplantation, the volume of tumor was measured and the volume of tumor and the inhibition against tumor multiplication rate (I.R.) were calculated by the above formulas.
# [8] = 2.5[mg/kg]×3 (i.p.), 7,11,15th days
# [9] = 5 [mg/kg]×3 (i.p.), 7,11,15th days
# [10] = 10 [mg/kg]×2 (i.p.), 7,8th days
structure (smiles),measurement,setting,value
CC(=O)OC1C=CC=C2CC34SSC(CO)(C(=O)N3C21)N(C)C4=O (stereo not shown) [acetylgliotoxin],IC50,[1],0.18 µg/mL
same,IC50,[2],0.039 µg/mL
same,IC50,[3],0.074 µg/mL
same,IC50,P388 (mouse leukemia ),0.0058 µg/mL
same,IC50,[4],0.19 µg/mL
same,IC50,U937 (human leukemia ),0.014 µg/mL
same,IC50,[5],0.076 µg/mL
same,apoptosis (cell death) -inducing ability,various cancer cells,apoptosis (cell death) -inducing ability
same,I. R. (%),[6]; 0.5 mg/kg×5 i.p.(d7-11),41%
same,I. R. (%),[6]; 1 mg/kg×5 i.p.(d7-11),65%
same,I. R. (%),"[6]; 10 mg/kg×2 i.p.(d7, 8)",65%
same,I. R. (%),[6]; 20 mg/kg×1 i.p. (d7),28%
same,duration of anticancer effects,"[6]; Test Example (B), 1 mg/kg × 5 and 10 mg/kg × 2",continued up to day 42
same,I.R. (21st day),[7]; [8],19.6%
same,I.R.Max,[7]; [8],44.9%
same,I.R. (21st day),[7]; [9],11.8%
same,I.R.Max,[7]; [9],56.8%
same,I.R. (21st day),[7]; [10],26.0%
same,I.R.Max,[7]; [10],68.8%
